# Test results from patent US20210070748A1, “INHIBITORS OF BRUTONS TYROSINE KINASE” (Pharmacyclics LLC, priority 2015, published 2021).
# pIC50: −log10 of the molar value.
# Key:
# Type in all cases: biochemical
# BTK-WT = biological target: T1, BTK-WT (Homo sapiens, UniProt Q06187); assay: Btk in vitro inhibitory activity (one of Method A TR-FRET, Method B electrophoretic mobility shift, Method C radiometric filter binding); details: D-compounds panel data; read-out: IC50 BTK-WT
# T1 construct: purified from insect cells as a full-length construct containing an N-terminal 6X-His tag; His6 (N); made in house; host or cells: insect cells (baculovirus Sf21 in Method B)
# T1 sequence (Q06187 whole entry): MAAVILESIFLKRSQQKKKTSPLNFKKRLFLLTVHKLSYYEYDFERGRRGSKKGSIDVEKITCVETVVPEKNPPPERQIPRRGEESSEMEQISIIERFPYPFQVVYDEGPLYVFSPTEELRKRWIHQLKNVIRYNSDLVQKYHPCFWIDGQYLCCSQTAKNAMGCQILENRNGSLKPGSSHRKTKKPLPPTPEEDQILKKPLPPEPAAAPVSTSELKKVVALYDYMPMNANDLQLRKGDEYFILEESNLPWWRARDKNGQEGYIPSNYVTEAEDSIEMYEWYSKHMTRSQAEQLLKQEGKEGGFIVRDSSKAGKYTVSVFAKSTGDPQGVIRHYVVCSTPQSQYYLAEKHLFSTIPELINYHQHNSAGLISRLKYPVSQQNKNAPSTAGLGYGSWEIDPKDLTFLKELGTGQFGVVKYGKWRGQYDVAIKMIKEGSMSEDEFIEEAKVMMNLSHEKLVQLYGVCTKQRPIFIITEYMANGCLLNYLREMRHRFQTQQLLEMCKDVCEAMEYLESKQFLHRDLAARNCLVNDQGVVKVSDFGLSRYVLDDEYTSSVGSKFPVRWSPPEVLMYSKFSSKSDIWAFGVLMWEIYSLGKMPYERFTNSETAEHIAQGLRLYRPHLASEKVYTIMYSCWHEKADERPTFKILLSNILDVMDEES
# SRC = SRC (Homo sapiens, UniProt P12931); assay: Inhibition of a panel of kinases, in vitro HotSpot kinase assay: SRC; details: D-compounds panel data; 1 μM ATP
# Sequence of SRC (P12931 whole entry): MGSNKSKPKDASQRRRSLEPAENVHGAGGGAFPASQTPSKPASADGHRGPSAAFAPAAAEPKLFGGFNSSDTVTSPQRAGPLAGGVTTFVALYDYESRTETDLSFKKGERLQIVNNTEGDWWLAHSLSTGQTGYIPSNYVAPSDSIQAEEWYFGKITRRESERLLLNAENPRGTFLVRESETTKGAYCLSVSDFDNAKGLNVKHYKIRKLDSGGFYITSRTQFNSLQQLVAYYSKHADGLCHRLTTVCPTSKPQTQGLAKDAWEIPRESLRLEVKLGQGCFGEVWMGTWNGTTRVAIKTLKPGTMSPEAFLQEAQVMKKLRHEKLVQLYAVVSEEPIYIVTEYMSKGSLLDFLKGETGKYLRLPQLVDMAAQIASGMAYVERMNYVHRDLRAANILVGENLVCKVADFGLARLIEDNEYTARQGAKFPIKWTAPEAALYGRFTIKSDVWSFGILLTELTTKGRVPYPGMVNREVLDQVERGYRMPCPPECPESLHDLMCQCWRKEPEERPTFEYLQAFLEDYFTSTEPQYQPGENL
# Experimental: The degree of inhibition of a panel of kinases is determined using the in vitro HotSpot kinase assay (purified enzymes, ^33P-ATP, an appropriate substrate and 1 μM ATP).
# JAK3 = biological target: T2, JAK3 (Homo sapiens, UniProt P52333); assay: Inhibition of a panel of kinases, in vitro HotSpot kinase assay: JAK3; details: D-compounds panel data; 1 μM ATP; read-out: IC50 JAK3
# T2 sequence (P52333 1-1124): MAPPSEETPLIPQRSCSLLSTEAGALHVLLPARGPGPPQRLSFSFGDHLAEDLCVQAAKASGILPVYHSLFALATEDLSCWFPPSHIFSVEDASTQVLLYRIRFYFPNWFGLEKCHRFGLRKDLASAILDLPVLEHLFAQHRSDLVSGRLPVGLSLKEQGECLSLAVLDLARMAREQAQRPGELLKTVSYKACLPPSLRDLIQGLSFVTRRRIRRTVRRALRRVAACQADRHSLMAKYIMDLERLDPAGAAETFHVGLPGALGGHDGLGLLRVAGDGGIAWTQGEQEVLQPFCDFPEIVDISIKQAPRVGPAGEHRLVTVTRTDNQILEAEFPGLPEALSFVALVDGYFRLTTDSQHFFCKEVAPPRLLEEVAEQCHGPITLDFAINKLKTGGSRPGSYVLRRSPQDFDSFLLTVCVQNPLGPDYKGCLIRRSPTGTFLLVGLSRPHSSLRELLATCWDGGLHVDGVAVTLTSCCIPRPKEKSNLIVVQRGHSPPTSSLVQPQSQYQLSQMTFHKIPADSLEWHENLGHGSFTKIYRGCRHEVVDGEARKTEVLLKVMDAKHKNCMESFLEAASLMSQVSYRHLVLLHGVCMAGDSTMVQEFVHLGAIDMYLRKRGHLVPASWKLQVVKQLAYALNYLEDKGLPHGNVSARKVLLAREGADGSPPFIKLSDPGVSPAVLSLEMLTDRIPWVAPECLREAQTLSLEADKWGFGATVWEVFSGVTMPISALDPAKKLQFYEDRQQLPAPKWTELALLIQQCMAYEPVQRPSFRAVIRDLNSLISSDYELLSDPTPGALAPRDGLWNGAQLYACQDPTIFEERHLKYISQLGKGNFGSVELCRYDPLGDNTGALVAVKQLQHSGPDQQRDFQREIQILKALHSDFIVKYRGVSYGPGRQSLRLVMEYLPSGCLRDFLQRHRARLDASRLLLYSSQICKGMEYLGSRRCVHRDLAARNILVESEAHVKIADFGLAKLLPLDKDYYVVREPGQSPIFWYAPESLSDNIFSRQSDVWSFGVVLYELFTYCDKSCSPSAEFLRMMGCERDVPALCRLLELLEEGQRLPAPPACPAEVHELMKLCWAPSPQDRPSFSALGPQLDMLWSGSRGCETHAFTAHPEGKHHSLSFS
SMILES,pIC50 (BTK-WT),pIC50 (SRC),pIC50 (JAK3)
"Cc1cc(Nc2nc(N3C[C@H](NC(=O)N(C)C)CC[C@H]3C)cnc2C(N)=O)sn1 [Example D-77, 5-[(2R,5R)-5-[(dimethylcarbamoyl)amino]-2-methylpiperidin-1-yl]-3-[(3-methyl-1,2-thiazol-5-yl)amino]pyrazine-2-carboxamide]",6.00 to 7.00,5.00 to 6.00,5.00 to 6.00
"Cc1cc(Nc2nc(N3CCC[C@@H](NC(=O)N(C)C)[C@H]3CO)cnc2C(N)=O)sn1 [Example D-67, 5-[(2S,3R)-3-[(dimethylcarbamoyl)amino]-2-(hydroxymethyl)piperidin-1-yl]-3-[(3-methyl-1,2-thiazol-5-yl)amino]pyrazine-2-carboxamide]",7.00 to 8.00,6.00 to 7.00,5.00 to 6.00
"Cc1cc(Nc2nc(N3C[C@H](NC(=O)N(C)C)CC[C@@H]3C)cnc2C(N)=O)sn1 [Example D-74, 5-[(2S,5R)-5-[(dimethylcarbamoyl)amino]-2-methylpiperidin-1-yl]-3-[(3-methyl-1,2-thiazol-5-yl)amino]pyrazine-2-carboxamide]",6.00 to 7.00,5.00 to 6.00,6.00 to 7.00
C[C@@H]1[C@H](NC(=O)c2ccc(C3CC3)cc2)CCCN1c1cnc(C(N)=O)c(Nc2ccc(N3CCN(C)CC3)cc2)n1 [Example D-81],≥ 8.00,7.00 to 8.00,5.00 to 6.00
"Cn1cc(Nc2nc(N3CCC[C@@H]4[C@H]3CCN4C(=O)c3ccccc3)cnc2C(N)=O)cn1 (racemic) [Example D-54, (racemic)-cis-5-{1-benzoyl-octahydro-1H-pyrrolo[3,2-b]pyridin-4-yl}-3-[(1-methyl-1H-pyrazol-4-yl)amino]pyrazine-2-carboxamide]",7.00 to 8.00,6.00 to 7.00,5.00 to 6.00
"CN1CCN(C(=O)c2ccc(Nc3nc(N[C@H]4CC[C@@H](NC(=O)N(C)C)CC4)cnc3C(N)=O)cc2)CC1 [Example D-72, 3-{[4-(4-methylpiperazine-1-carbonyl)phenyl]amino}-5-{[(1s,4s)-4-[(dimethylcarbamoyl)amino]cyclohexyl]amino}pyrazine-2-carboxamide]",7.00 to 8.00,6.00 to 7.00,5.00 to 6.00
"Cn1cc(Nc2nc(N3CCC(NC(=O)c4ccc(C5CC5)cc4)C(O)C3)cnc2C(N)=O)cn1 (single isomer, unassigned) [Example D-29, Trans-5-[4-(4-cyclopropylbenzamido)-3-hydroxypiperidin-1-yl]-3-[(1-methyl-1H-pyrazol-4-yl)amino]pyrazine-2-carboxamide]",6.00 to 7.00,5.00 to 6.00,< 5.00
"Cc1cc(Nc2nc(N3C[C@@H](NC(=O)N(C)C)CC[C@H]3C)cnc2C(N)=O)sn1 [Example D-75, 5-[(2R,5S)-5-[(dimethylcarbamoyl)amino]-2-methylpiperidin-1-yl]-3-[(3-methyl-1,2-thiazol-5-yl)amino]pyrazine-2-carboxamide]",7.00 to 8.00,6.00 to 7.00,6.00 to 7.00
"C[C@@H]1C[C@H](NC(=O)c2ccc(C3CC3)cc2)CN(c2cnc(C(N)=O)c(Nc3cnn(C)c3)n2)C1 [Example D-32, 5-[(3S,5R)-3-(4-cyclopropylbenzamido)-5-methylpiperidin-1-yl]-3-[(1-methyl-1H-pyrazol-4-yl)amino]pyrazine-2-carboxamide]",6.00 to 7.00,< 5.00,< 5.00
"Cn1cc(Nc2nc(N3CCC(NC(=O)c4ccc(C5CC5)cc4)C(O)C3)cnc2C(N)=O)cn1 (single isomer, unassigned) [Example D-28, Trans-5-[4-(4-cyclopropylbenzamido)-3-hydroxypiperidin-1-yl]-3-[(1-methyl-1H-pyrazol-4-yl)amino]pyrazine-2-carboxamide]",5.00 to 6.00,5.00 to 6.00,< 5.00
"C[C@@H]1[C@H](NC(=O)c2ccc(C(C)(C)O)nc2)CCCN1c1nnc(C(N)=O)c(Nc2cnn(C)c2)n1 [Example D-41, 3-[(2R,3R)-3-[6-(2-hydroxypropan-2-yl)pyridine-3-amido]-2-methylpiperidin-1-yl]-5-[(1-methyl-1H-pyrazol-4-yl)amino]-1,2,4-triazine-6-carboxamide]",≥ 8.00,7.00 to 8.00,6.00 to 7.00
"CN(C)C(=O)N[C@H]1CCCN(c2cnc(C(N)=O)c(Nc3ccc4ncccc4c3)n2)[C@@H]1CO (racemic) [Example D-64, trans 5-[3-[(dimethylcarbamoyl)amino]-2-(hydroxymethyl)piperidin-1-yl]-3-[(quinolin-6-yl)amino]pyrazine-2-carboxamide]",5.00 to 6.00,< 5.00,< 5.00
"Cn1cc(Nc2nc(N3CCC[C@@H]4[C@H]3CCN4C(=O)c3ccc(C4CC4)cc3)cnc2C(N)=O)cn1 [Example D-44, 5-[(3aR,7aR)-1-(4-cyclopropylbenzoyl)-octahydro-1H-pyrrolo[3,2-b]pyridin-4-yl]-3-[(1-methyl-1H-pyrazol-4-yl)amino]pyrazine-2-carboxamide]",7.00 to 8.00,5.00 to 6.00,5.00 to 6.00
"C[C@@H]1[C@H](N2Cc3cc(C4CC4)ccc3C2=O)CCCN1c1cnc(C(N)=O)c(Nc2cnn(C)c2)n1 [Example D-36, 5-[(2R,3R)-3-(5-cyclopropyl-1-oxo-2,3-dihydro-1H-isoindol-2-yl)-2-methylpiperidin-1-yl]-3-[(1-methyl-1H-pyrazol-4-yl)amino]pyrazine-2-carboxamide]",≥ 8.00,6.00 to 7.00,6.00 to 7.00

# Other lines, results leading:
pIC50 (BTK-WT),pIC50 (SRC),pIC50 (JAK3),SMILES
≥ 8.00,7.00 to 8.00,< 5.00,"C[C@@H]1[C@H](NC(=O)c2ccc(N(C)C)cn2)CCCN1c1cnc(C(N)=O)c(Nc2cnn(C)c2)n1 [Example D-84, 5-[(2R,3R)-3-[5-(dimethylamino)pyridine-2-amido]-2-methylpiperidin-1-yl]-3-[(1-methyl-1H-pyrazol-4-yl)amino]pyrazine-2-carboxamide]"
≥ 8.00,7.00 to 8.00,6.00 to 7.00,"C[C@@H]1[C@H](NC(=O)c2ccc(C(C)(C)CO)cc2)CCCN1c1cnc(C(N)=O)c(Nc2cnn(C)c2)n1 [Example D-94, 5-[(2R,3R)-3-[4-(1-hydroxy-2-methylpropan-2-yl)benzamido]-2-methylpiperidin-1-yl]-3-[(1-methyl-1H-pyrazol-4-yl)amino]pyrazine-2-carboxamide]"
≥ 8.00,7.00 to 8.00,6.00 to 7.00,"C[C@@H]1[C@H](NC(=O)c2cnc(C3CC3)nc2)CCCN1c1cnc(C(N)=O)c(Nc2cnn(C)c2)n1 [Example D-86, 5-[(2R,3R)-3-(2-cyclopropylpyrimidine-5-amido)-2-methylpiperidin-1-yl]-3-[(1-methyl-1H-pyrazol-4-yl)amino]pyrazine-2-carboxamide]"
≥ 8.00,< 5.00,5.00 to 6.00,"C[C@@H]1[C@H](NC(=O)c2ccc(C3CC3)cc2)CCCN1c1cnc(C(N)=O)c(Nc2ccc(C3CCOCC3)cc2)n1 [Example D-317, 5-[(2R,3R)-3-(4-cyclopropylbenzamido)-2-methylpiperidin-1-yl]-3-{[4-(oxan-4-yl)phenyl]amino}pyrazine-2-carboxamide]"
≥ 8.00,7.00 to 8.00,5.00 to 6.00,"C[C@@H]1[C@H](NC(=O)c2ccc(C3CC3)cc2)CCCN1c1cnc(C(N)=O)c(Nc2ccc(CN3CCOCC3)cc2)n1 [Example D-316, 5-[(2R,3R)-3-(4-cyclopropylbenzamido)-2-methylpiperidin-1-yl]-3-{[4-(morpholin-4-ylmethyl)phenyl]amino}pyrazine-2-carboxamide]"
≥ 8.00,7.00 to 8.00,6.00 to 7.00,"C[C@@H]1[C@H](NC(=O)c2ccc(C(F)(F)F)nc2)CCCN1c1cnc(C(N)=O)c(Nc2cnn(C)c2)n1 [Example D-91, 3-[(1-methyl-1H-pyrazol-4-yl)amino]-5-[(2R,3R)-2-methyl-3-[6-(trifluoromethyl)pyridine-3-amido]piperidin-1-yl]pyrazine-2-carboxamide]"
